According to US12448373B2, “Azetidinyl-acetamides as CXCR7 inhibitors” (CHEMOCENTRYX, INC., priority 2021, dated 2025):

Molecular target: T1, CXCR7 (Homo sapiens, UniProt P25106)
T1 construct: expressed in transfected cells; host or cells: CHO cells (CHO-CXCR7), transgenes maintained with Hygromycin B and G418
Assay: CXCR7 β-arrestin recruitment assay in CHO-CXCR7 cells (ProLink/EA β-galactosidase complementation), induced by human SDF-1a
Type: cell-based
Details: assay buffer, SDF-1a at EC50 concentration
Procedure, shortened: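 SDF-1α-induced β-arrestin recruitment was measured by enzyme-fragment complementation (ProLink-CXCR7 with β-arrestin-EA) in stable CHO cells. Agonist was dosed at its EC50, determined the same day, alongside serially diluted compound for 1.5 h at 37 °C. Fluorogenic galactoside substrate (0.4 mM, 30 min) was read at 360/465 nm, with IC50 from 3-parameter nonlinear regression.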

T1 sequence (P25106 whole entry): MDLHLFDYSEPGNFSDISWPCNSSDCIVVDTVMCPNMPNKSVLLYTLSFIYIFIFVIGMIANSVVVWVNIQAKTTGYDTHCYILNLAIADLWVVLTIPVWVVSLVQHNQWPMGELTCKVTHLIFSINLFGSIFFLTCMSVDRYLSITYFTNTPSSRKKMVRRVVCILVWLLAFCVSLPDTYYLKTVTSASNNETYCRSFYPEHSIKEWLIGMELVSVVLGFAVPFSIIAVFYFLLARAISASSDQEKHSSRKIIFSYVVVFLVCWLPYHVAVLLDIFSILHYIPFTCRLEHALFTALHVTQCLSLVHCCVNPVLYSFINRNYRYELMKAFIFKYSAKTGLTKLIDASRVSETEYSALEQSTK

IC50	SMILES
0.005 to 0.1 µM	Cc1cc(C)nc(C(C)(C)NC(=O)CC2(NC(=O)c3cc(-c4ccc(F)cc4F)on3)CN(C3CCOC(C)(C)C3)C2)n1 (stereo not shown) [Example 1.359]
1 to 20 µM	CC(C)(NC(=O)CC1(NC(=O)c2cnn(-c3ccc(F)cc3F)c2)CN([C@H]2CC[C@](C)(O)CC2)C1)c1cccc(Cl)c1 [Example 1.049]
0.005 to 0.1 µM	CC(C)(NC(=O)CC1(NC(=O)c2nnc(-c3ccc(F)cc3F)s2)CN([C@H]2CC[C@](C)(O)CC2)C1)c1cc(F)cc(F)c1 [Example 1.028]
1 to 20 µM	C[C@]1(O)CC[C@H](N2CC(CC(=O)NCc3ccccc3)(NC(=O)c3cc(-c4ccc(F)cc4F)on3)C2)CC1 [Example 1.128]
0.005 to 0.1 µM	COc1cccc(C(C)(C)NC(=O)CC2(NC(=O)c3cc(-c4ccc(F)cc4F)on3)CN(C3CCCCC3)C2)n1 [Example 1.272]
0.1 to 1 µM	CC(C)(NC(=O)CC1(NC(=O)c2cc(-c3ccc(F)cc3F)on2)CN(CC2CCOCC2)C1)c1ccccn1 [Example 1.222]
0.005 to 0.1 µM	CC[C@H](NC(=O)CC1(NC(=O)c2cc(-c3ccc(F)cc3F)on2)CN(C2CCCCC2)C1)c1ccccc1 [Example 1.304]
0.005 to 0.1 µM	Cc1cc(C)nc(C(C)(C)NC(=O)CC2(NC(=O)c3nnc(-c4ccc(F)cc4F)s3)CN(CC(C)C)C2)n1 [Example 1.039]
1 to 20 µM	CC(C)(NC(=O)CC1(NC(=O)c2cc(-c3ccc(F)cc3F)on2)CN([C@H]2CC[C@](C)(O)CC2)C1)c1cccc2[nH]ncc12 [Example 1.087]
0.005 to 0.1 µM	CC(C)(NC(=O)CC1(NC(=O)c2cc(-c3ccc(F)cc3F)on2)CN(C2CCC(O)CC2)C1)c1ccccn1 (stereo not shown) [Example 1.300]
< 0.005 µM	CC(C)(NC(=O)CC1(NC(=O)c2nnc(-c3ccc(F)cc3F)s2)CN([C@H]2CC[C@](C)(O)CC2)C1)c1cccc(F)c1 [Example 1.042]
< 0.005 µM	Cc1ccc(C)c(C(C)(C)NC(=O)CC2(NC(=O)c3nnc(-c4ccc(F)cc4F)s3)CN([C@H]3CC[C@](C)(O)CC3)C2)n1 [Example 1.011]
0.1 to 1 µM	Cc1cc(C)nc(C(C)(C)NC(=O)CC2(NC(=O)c3cc(-c4ccc(F)cc4F)on3)CN(C3CCOCC3(C)C)C2)n1 (stereo not shown) [Example 1.351]
0.005 to 0.1 µM	COc1cncc(C(C)(C)NC(=O)CC2(NC(=O)c3cc(-c4ccc(F)cc4F)on3)CN([C@H]3CC[C@@](C)(O)CC3)C2)c1 [Example 1.141]
0.1 to 1 µM	COc1cccc(C(C)(C)NC(=O)CC2(NC(=O)c3cc(-c4ccc(F)cc4F)on3)CN(CC3CC3)C2)c1 [Example 1.117]
0.1 to 1 µM	Cc1ccc(C(C)(C)NC(=O)CC2(NC(=O)c3cc(-c4ccc(F)cc4F)on3)CN([C@H]3CC[C@@](C)(O)CC3)C2)cc1C(F)(F)F [Example 1.261]
0.005 to 0.1 µM	COc1cccc(C(C)(C)NC(=O)CC2(NC(=O)c3cc(-c4ccc(F)cc4F)on3)CN([C@H]3CC[C@](C)(O)CC3)C2)c1 [Example 1.239]
1 to 20 µM	CC(C)(NC(=O)CC1(NC(=O)c2csc(-c3ccc(F)cc3F)n2)CN([C@H]2CC[C@@](C)(O)CC2)C1)c1cccc(Cl)c1 [Example 1.050]
0.005 to 0.1 µM	CC(C)(NC(=O)CC1(NC(=O)c2cn(-c3ccc(F)cc3F)nn2)CN(C2CCCCC2)C1)c1cccc(Cl)c1 [Example 1.076]
0.005 to 0.1 µM	COc1cc(C)cc(C(C)(C)NC(=O)CC2(NC(=O)c3cc(-c4ccc(F)cc4F)on3)CN([C@H]3CC[C@](C)(O)CC3)C2)c1 [Example 1.119]

IC50	SMILES
0.005 to 0.1 µM	CC(C)(NC(=O)CC1(NC(=O)c2cc(-c3ccc(F)cc3F)on2)CN([C@H]2CC[C@](C)(O)CC2)C1)c1cccc(C2CC2)c1 [Example 1.144]
0.005 to 0.1 µM	C[C@]1(O)CC[C@H](N2CC(CC(=O)NCc3c[nH]c4ccccc34)(NC(=O)c3cc(-c4ccc(F)cc4F)on3)C2)CC1 [Example 1.279]
0.005 to 0.1 µM	CC(C)(NC(=O)CC1(NC(=O)c2cc(-c3ccc(F)cc3F)on2)CN(CC2CCCC2)C1)c1ccccn1 [Example 1.029]
1 to 20 µM	C[C@]1(O)CC[C@@H](N2CC(CC(=O)NCc3c[nH]c4ccccc34)(NC(=O)c3cc(-c4ccc(F)cc4F)on3)C2)CC1 [Example 1.278]
< 0.005 µM	Cc1ccnc(C(C)(C)NC(=O)CC2(NC(=O)c3cc(-c4ccc(F)cc4F)on3)CN([C@H]3CC[C@@](C)(O)CC3)C2)c1 [Example 1.163]
< 0.005 µM	CC(C)(NC(=O)CC1(NC(=O)c2cc(-c3ccc(F)cc3F)on2)CN(C2(C)CCCCC2)C1)c1cccc(Cl)c1 [Example 1.360]
0.1 to 1 µM	CC(C)(NC(=O)CC1(NC(=O)c2cc(-c3ccc(F)cc3F)on2)CN([C@H]2CC[C@@](C)(O)CC2)C1)c1ccc(F)cn1 [Example 1.207]
< 0.005 µM	CC(C)(NC(=O)CC1(NC(=O)c2cc(-c3ccc(F)cc3F)on2)CN([C@H]2CC[C@](C)(O)CC2)C1)c1ccccc1 [Example 1.268]
0.1 to 1 µM	Cc1ccc(C(C)(C)NC(=O)CC2(NC(=O)c3cc(-c4ccc(F)cc4F)on3)CN([C@H]3CC[C@](C)(O)CC3)C2)cc1C(F)(F)F [Example 1.262]
< 0.005 µM	CC(C)(NC(=O)CC1(NC(=O)c2cc(-c3ccc(F)cc3F)on2)CN(C2CCCCC2)C1)c1ccccc1C(F)(F)F [Example 1.308]
0.005 to 0.1 µM	CC1(C)CC(N2CC(CC(=O)NC(C)(C)c3cccc(Cl)c3)(NC(=O)c3cc(-c4ccc(F)cc4F)on3)C2)CCO1 (stereo not shown) [Example 1.357]
1 to 20 µM	Cn1nc(-c2ccc(F)cc2F)cc1C(=O)NC1(CC(=O)NC(C)(C)c2cccc(Cl)c2)CN([C@H]2CC[C@@](C)(O)CC2)C1 [Example 1.058]
< 0.005 µM	Cc1cccc(C(C)(C)NC(=O)CC2(NC(=O)c3cc(-c4ccc(F)cc4F)on3)CN([C@H]3CC[C@@](C)(O)CC3)C2)n1 [Example 1.225]
0.005 to 0.1 µM	CC(C)(NC(=O)CC1(NC(=O)c2cc(-c3ccc(F)cc3F)on2)CN([C@H]2CC[C@](C)(O)CC2)C1)c1cccnc1 [Example 1.194]
0.005 to 0.1 µM	CC(C)(NC(=O)CC1(NC(=O)c2cc(-c3ccc(F)cc3F)on2)CN([C@H]2CC[C@](C)(O)CC2)C1)c1c[nH]c2ncccc12 [Example 1.097]
< 0.005 µM	COc1cc(Cl)cc(C(C)(C)NC(=O)CC2(NC(=O)c3cc(-c4ccc(F)cc4F)on3)CN([C@H]3CC[C@](C)(O)CC3)C2)c1 [Example 1.165]
0.1 to 1 µM	Cc1cc(C(C)(C)NC(=O)CC2(NC(=O)c3cc(-c4ccc(F)cc4F)on3)CN(CC3(O)CCC3)C2)ccn1 [Example 1.150]
0.005 to 0.1 µM	COc1cncc(C(C)(C)NC(=O)CC2(NC(=O)c3cc(-c4ccc(F)cc4F)on3)CN([C@H]3CC[C@](C)(O)CC3)C2)c1 [Example 1.142]
1 to 20 µM	CC(C)(O)CCN1CC(CC(=O)NC(C)(C)c2ccccn2)(NC(=O)c2cc(-c3ccc(F)cc3F)on2)C1 [Example 1.230]
0.1 to 1 µM	CC(C)(NC(=O)CC1(NC(=O)c2cc(-c3ccc(F)cc3F)on2)CN([C@H]2CC[C@](C)(O)CC2)C1)c1c(F)cccc1F [Example 1.258]

IC50	SMILES
< 0.005 µM	COc1cc(C(C)(C)NC(=O)CC2(NC(=O)c3cc(-c4ccc(F)cc4F)on3)CN([C@H]3CC[C@@](C)(O)CC3)C2)ccn1 [Example 1.188]
< 0.005 µM	CC1(CN2CC(CC(=O)NC(C)(C)c3ccccn3)(NC(=O)c3cc(-c4ccc(F)cc4F)on3)C2)CCC1 [Example 1.002]
< 0.005 µM	Cc1ccnc(C(C)(C)NC(=O)CC2(NC(=O)c3cc(-c4ccc(F)cc4F)on3)CN([C@H]3CC[C@](C)(O)CC3)C2)c1 [Example 1.164]
0.1 to 1 µM	O=C(CC1(NC(=O)c2cc(-c3ccc(F)cc3F)on2)CN(C2CCOCC2)C1)NC1(c2ncccn2)CC1 [Example 1.328]
0.1 to 1 µM	CN1CCC(N2CC(CC(=O)NC(C)(C)c3ccccn3)(NC(=O)c3cc(-c4ccc(F)cc4F)on3)C2)CC1 [Example 1.280]
0.1 to 1 µM	CC(C)(NC(=O)CC1(NC(=O)c2cc(-c3ccc(F)cc3F)on2)CN([C@H]2CC[C@@](C)(O)CC2)C1)c1ccccn1 [Example 1.034]
0.005 to 0.1 µM	CC(C)(NC(=O)CC1(NC(=O)c2cnc(-c3ccc(F)cc3F)s2)CN([C@H]2CC[C@](C)(O)CC2)C1)c1cccc(Cl)c1 [Example 1.069]
0.005 to 0.1 µM	COc1cc(OC)nc(C(C)(C)NC(=O)CC2(NC(=O)c3nnc(-c4ccc(F)cc4F)s3)CN([C@H]3CC[C@](C)(O)CC3)C2)c1 [Example 1.342]
0.005 to 0.1 µM	CC(C)(NC(=O)CC1(NC(=O)c2nnc(-c3ccc(F)cc3F)s2)CN([C@H]2CC[C@](C)(O)CC2)C1)c1cc(Cl)cc(C#N)c1 [Example 1.345]
< 0.005 µM	CC(C)(NC(=O)CC1(NC(=O)c2nnc(-c3ccc(F)cc3F)s2)CN([C@H]2CC[C@](C)(O)CC2)C1)c1cc(Cl)cc(Cl)c1 [Example 1.007]
0.005 to 0.1 µM	COc1cccnc1C(C)(C)NC(=O)CC1(NC(=O)c2nnc(-c3ccc(F)cc3F)s2)CN([C@H]2CC[C@](C)(O)CC2)C1 [Example 1.009]
< 0.005 µM	CC(C)(NC(=O)CC1(NC(=O)c2cc(-c3ccc(F)cc3F)on2)CN([C@H]2CC[C@](C)(O)CC2)C1)c1cc(F)ccc1F [Example 1.236]
0.005 to 0.1 µM	CC(C)(NC(=O)CC1(NC(=O)c2cc(-c3ccc(F)cc3F)on2)CN(C2CCC3(CC2)CC3)C1)c1ccccn1 [Example 1.269]
0.005 to 0.1 µM	Cc1ccc(C(C)(C)NC(=O)CC2(NC(=O)c3cc(-c4ccc(F)cc4F)on3)CN(C3CCCCC3)C2)cn1 [Example 1.281]
0.1 to 1 µM	Cc1cc(C)nc(C(C)(C)NC(=O)CC2(NC(=O)c3cc(-c4ccc(F)cc4F)on3)CN(C3CC(C)OC(C)C3)C2)n1 (stereo not shown) [Example 1.354]
0.005 to 0.1 µM	Cc1cc(C)nc(C(C)(C)NC(=O)CC2(NC(=O)c3cc(-c4ccc(F)cc4F)on3)CN(CC(C)C)C2)n1 [Example 1.037]
0.005 to 0.1 µM	COc1cc(C)nc(C(C)(C)NC(=O)CC2(NC(=O)c3cc(-c4ccc(F)cc4F)on3)CN([C@H]3CC[C@](C)(O)CC3)C2)c1 [Example 1.339]
0.005 to 0.1 µM	Cc1cc(Cl)cc(C(C)(C)NC(=O)CC2(NC(=O)c3nnc(-c4ccc(F)cc4F)s3)CN([C@H]3CC[C@](C)(O)CC3)C2)c1 [Example 1.348]
